We go through 54 compounds from the supplement of paper PMC12325586.

This assay has as its system MIA PaCa-2. As for the experimental part: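 MIA PaCa-2 Tet-on shOFD1 pancreatic cancer cells (2000 cells/well, 96-well) were treated with Selleck FDA-approved library compounds at 0, 1, 5, 10, 25 and 50 µM, with extra concentrations added where needed, for 72 h at 37 °C. Knockdown wells also received 100 ng/mL doxycycline; control wells received DMSO without doxycycline. Viability was read by CCK-8 absorbance at 450 nm and normalised to DMSO control wells. IC50 was fitted in GraphPad Prism as a 4-parameter logistic with bottom fixed at 0 and top fixed at 1; at least 3 technical replicate wells per condition.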

The mark [1] stands for this setting: OFD1 knockdown: no (no doxycycline).
[2] abbreviates: OFD1 knockdown: yes (Tet-on shOFD1, 100 ng/mL doxycycline).

Structures are written as SMILES.

For the compound `N#CC[C@H](C1CCCC1)n1cc(-c2ncnc3[nH]ccc23)cn1` [S1378], the IC50 cell viability turned out to be 70.3 µM under setting [1] and 68.4 µM under setting [2].
On to `CC1=C(/C=C/C(C)=C/C=C/C(C)=C\C(=O)O)C(C)(C)CCC1` [S1379], for which the IC50 cell viability under setting [1] is 12.2 µM and the IC50 cell viability under setting [2] amounted to 11.5 µM.
Consider `CCOc1cc2ncc(C#N)c(Nc3ccc(F)c(Cl)c3)c2cc1NC(=O)/C=C/CN(C)C` [S1392], for which the IC50 cell viability was found to be 53.8 µM under setting [1] and 56.4 µM under setting [2].
As for `Cc1ccc(C(=O)N(CCCN)[C@@H](c2nc3cc(Cl)ccc3c(=O)n2Cc2ccccc2)C(C)C)cc1` [S1452], the IC50 cell viability under setting [1] is 1.44 µM and the IC50 cell viability under setting [2] was found to be 1.4 µM.
On the same counts, the results for `COc1nc(C)cnc1NS(=O)(=O)c1cccnc1-c1ccc(-c2nnco2)cc1` [S1456] are 70.2 µM and 64.3 µM.
Take `C=C1/C(=C\C=C2/CCC[C@]3(C)[C@@H]([C@H](C)/C=C/[C@H](C)C(C)C)CC[C@@H]23)C[C@@H](O)C[C@@H]1O` [S1467]: the IC50 cell viability worked out at 46.5 µM under setting [1] and 45.7 µM under setting [2].
On to `Cc1ccc(C(=O)Nc2ccc(CN3CCN(C)CC3)c(C(F)(F)F)c2)cc1C#Cc1cnc2cccnn12` [S1490], for which the IC50 cell viability is, setting by setting: under setting [1], 3.75 µM; under setting [2], 3.86 µM.
On the same counts, the results for `Nc1nc(F)nc2c1ncn2[C@@H]1O[C@H](CO)[C@@H](O)[C@@H]1O` [S1491] are 59 µM and 54.2 µM.
Regarding `CC(C)(C)Cn1c(N)nc2ccc(-c3[nH]c(C(C)(C)C)nc3-c3ccc(F)cc3)nc21` [S1494], the IC50 cell viability turned out to be 4.04 µM under setting [1] and 3.46 µM under setting [2].
With `COc1c(C)c2c(c(O)c1C/C=C(\C)CCC(=O)OCCN1CCOCC1)C(=O)OC2` [S1501], the IC50 cell viability runs as follows: under setting [1], 11.9 µM; under setting [2], 11.5 µM.
With `CN1CC(=O)N2[C@H](c3ccc4c(c3)OCO4)c3[nH]c4ccccc4c3C[C@@H]2C1=O` [S1512], the IC50 cell viability was determined as 23.7 µM under setting [1] and 23.5 µM under setting [2].
For the compound `CCCCc1nc2cc(/C=C/C(=O)NO)ccc2n1CCN(CC)CC` [S1515], the IC50 cell viability runs as follows: under setting [1], 5.47 µM; under setting [2], 5.05 µM.
In turn, `COc1cc(Nc2nc3ccccc3nc2NS(=O)(=O)c2ccc(NC(=O)c3ccc(C)c(OC)c3)cc2)cc(OC)c1` [S1523] gave an IC50 cell viability under setting [1] of 47.6 µM and an IC50 cell viability under setting [2] of 45.5 µM.
For `CC(C)(C)c1cc(NC(=O)Nc2ccc(-c3cn4c(n3)sc3cc(OCCN5CCOCC5)ccc34)cc2)no1` [S1526], the IC50 cell viability runs as follows: under setting [1], 13.8 µM; under setting [2], 14.4 µM.
Compound `NC(=O)C1CCCc2c1[nH]c1ccc(Cl)cc21` (stereo not drawn) [S1541] displayed an IC50 cell viability under setting [1] of 70.7 µM and an IC50 cell viability under setting [2] of 65 µM.
As for `Cc1nc(-c2ccc(OCC(C)C)c(C#N)c2)sc1C(=O)O` [S1547], the IC50 cell viability is, setting by setting: under setting [1], 12.4 µM; under setting [2], 12.3 µM.
Regarding `CCOc1ccc(Cc2cc([C@@H]3O[C@H](CO)[C@@H](O)[C@H](O)[C@H]3O)ccc2Cl)cc1` [S1548], the IC50 cell viability under setting [1] is 16.5 µM and the IC50 cell viability under setting [2] turned out to be 17 µM.
The like results for `OC(CNCC(O)C1CCc2cc(F)ccc2O1)C1CCc2cc(F)ccc2O1` (stereo not drawn) [S1549] were, in that order, 28.8 µM and 27.2 µM.
On to `COc1ccc(-c2nc3cc(C4=NNC(=O)CC4C)ccc3[nH]2)cc1` (stereo not drawn) [S1550], for which the IC50 cell viability was determined as 26.3 µM under setting [1] and 28.8 µM under setting [2].
Consider `Nc1cccc2c1C(=O)N(C1CCC(=O)NC1=O)C2=O` (stereo not drawn) [S1567], for which the IC50 cell viability by setting is: under setting [1], 15.7 µM; under setting [2], 15.5 µM.
On the same counts, the results for `Cc1ccc(-n2nc(C(C)(C)C)cc2NC(=O)Nc2ccc(OCCN3CCOCC3)c3ccccc23)cc1` [S1574] are 77.2 µM and 83.8 µM.
As to `CCOc1nc2cccc(C(=O)O)c2n1Cc1ccc(-c2ccccc2-c2nnn[nH]2)cc1` [S1578], the IC50 cell viability by setting is: under setting [1], 1.56 µM; under setting [2], 1.3 µM.
The like results for `CC1(C)O[C@@H]2C[C@H]3[C@@H]4CCC5=CC(=O)C=C[C@]5(C)[C@@]4(F)[C@@H](O)C[C@]3(C)[C@]2(C(=O)CO)O1` [S1628] were, in that order, 23 µM and 22.1 µM.
The like results for `Oc1ncnc2[nH]ncc12` [S1630] were, in that order, 13.5 µM and 13.3 µM.
`CC1=C(/C=C/C(C)=C/C=C/C(C)=C/C(=O)O)C(C)(C)CCC1` [S1653]: the IC50 cell viability is, setting by setting: under setting [1], 13.6 µM; under setting [2], 14.3 µM.
`O=C1[C@H](CC[C@H](O)c2ccc(F)cc2)[C@@H](c2ccc(O)cc2)N1c1ccc(F)cc1` [S1655]: the IC50 cell viability worked out at 3.33 µM under setting [1] and 3.62 µM under setting [2].
Regarding `C[C@]12CC[C@@H]3c4ccc(O)cc4CC[C@H]3[C@@H]1CCC2=O` [S1665], the IC50 cell viability is 38.1 µM under setting [1] and 37.8 µM under setting [2].
The like results for `CCC1(c2ccc(N)cc2)CCC(=O)NC1=O` (stereo not drawn) [S1672] were, in that order, 23.6 µM and 22.2 µM.
The like results for `CCN(CC)C(=S)SSC(=S)N(CC)CC` [S1680] were, in that order, 46.3 µM and 49.8 µM.
On the same counts, the results for `C[C@H]1C[C@H]2[C@@H]3CCC4=CC(=O)C=C[C@]4(C)[C@H]3C(=O)C[C@]2(C)[C@@]1(O)C(=O)CO` [S1689] are 17.6 µM and 16.8 µM.
The compound `CS(=O)(=O)OCCCCOS(C)(=O)=O` [S1692] yielded an IC50 cell viability under setting [1] of 11.6 µM and an IC50 cell viability under setting [2] of 12.1 µM.
The compound `C[C@]12CCC(=O)C=C1CC[C@@H]1[C@@H]2[C@@H](O)C[C@@]2(C)[C@H]1CC[C@]2(O)C(=O)CO` [S1696] returned an IC50 cell viability under setting [1] of 57.9 µM and an IC50 cell viability under setting [2] of 53.4 µM.
The like results for `C[C@]12CC[C@@H]3c4ccc(O)cc4CC[C@H]3[C@@H]1CC[C@@H]2O` [S1709] were, in that order, 18 µM and 18.8 µM.
The like results for `Nc1ccn([C@@H]2O[C@H](CO)[C@@H](O)C2(F)F)c(=O)n1` [S1714] were, in that order, 3.36 µM and 3.16 µM.
On the same counts, the results for `Cn1cnc([N+](=O)[O-])c1Sc1ncnc2[nH]cnc12` [S1721] are 28.1 µM and 29.2 µM.
Consider `O=S(=O)(O)CCS` [S1735], for which the IC50 cell viability by setting is: under setting [1], 19.2 µM; under setting [2], 18.3 µM.
Turning to `CN(C)CCOc1ccc(/C(=C(/CCCl)c2ccccc2)c2ccccc2)cc1` [S1776], the IC50 cell viability stood at 47.6 µM under setting [1] and 46.9 µM under setting [2].
The like results for `Nc1ncn([C@@H]2O[C@H](CO)[C@@H](O)[C@H]2O)c(=O)n1` [S1782] were, in that order, 12.6 µM and 10.7 µM.
On the same counts, the results for `COc1cc([C@@H]2c3cc4c(cc3[C@@H](O[C@@H]3O[C@@H]5CO[C@@H](c6cccs6)O[C@H]5[C@H](O)[C@H]3O)[C@H]3COC(=O)[C@H]23)OCO4)cc(OC)c1O` [S1787] are 0.62 µM and 0.59 µM.
The like results for `CCC(C)(C)C(=O)O[C@H]1C[C@@H](C)C=C2C=C[C@H](C)[C@H](CC[C@@H]3C[C@@H](O)CC(=O)O3)[C@H]21` [S1792] were, in that order, 26.2 µM and 25 µM.
Consider `COc1ccccc1OCC(O)CN1CCN(CC(=O)Nc2c(C)cccc2C)CC1` (stereo not drawn) [S1799], for which the IC50 cell viability came to 20.2 µM under setting [1] and 19.2 µM under setting [2].
On the same counts, the results for `O=NN(CCCl)C(=O)NC1CCCCC1` [S1840] are 18.8 µM and 16.9 µM.
On the same counts, the results for `NC(=O)NO` [S1896] are 4.41 µM and 4.33 µM.
Consider `CC(C)C(=O)Nc1ccc([N+](=O)[O-])c(C(F)(F)F)c1` [S1908], for which the IC50 cell viability came to 2.71 µM under setting [1] and 2.5 µM under setting [2].
The like results for `CC(C)n1c(/C=C/C(O)CC(O)CC(=O)O)c(-c2ccc(F)cc2)c2ccccc21` (stereo not drawn) [S1909] were, in that order, 8.13 µM and 7.35 µM.
The like results for `CC/C(=C(\c1ccccc1)c1ccc(OCCN(C)C)cc1)c1ccccc1` [S1972] were, in that order, 42 µM and 36.7 µM.
In the case of `Cc1nnc(C(C)C)n1[C@H]1C[C@H]2CC[C@@H](C1)N2CC[C@H](NC(=O)C1CCC(F)(F)CC1)c1ccccc1` [S2003], the IC50 cell viability by setting is: under setting [1], 11 µM; under setting [2], 10.3 µM.
On the same counts, the results for `O=P1(N(CCCl)CCCl)NCCCO1` (stereo not drawn) [S2057] are 20.3 µM and 18.6 µM.
The like results for `C=C(c1ccc(C(=O)O)cc1)c1cc2c(cc1C)C(C)(C)CCC2(C)C` [S2098] were, in that order, 19.7 µM and 21.3 µM.
The like results for `CS(=O)(=O)CCNCc1ccc(-c2ccc3ncnc(Nc4ccc(OCc5cccc(F)c5)c(Cl)c4)c3c2)o1` [S2111] were, in that order, 9.12 µM and 8.03 µM.
Regarding `O=C(Nc1c(Cl)cncc1Cl)c1ccc(OC(F)F)c(OCC2CC2)c1` [S2131], the IC50 cell viability by setting is: under setting [1], 22 µM; under setting [2], 20 µM.
On the same counts, the results for `Cc1c(C(=O)Nc2ccc(N3C[C@@H](C)O[C@@H](C)C3)nc2)cccc1-c1ccc(OC(F)(F)F)cc1` [S2151] are 3.41 µM and 3.2 µM.
On the same counts, the results for `CC(C)C[C@H](NC(=O)CNC(=O)c1cc(Cl)ccc1Cl)B(O)O` [S2180] are 45.1 µM and 39.6 µM.
The like results for `COCCCOc1cc(C[C@@H](C[C@H](N)[C@@H](O)C[C@H](C(=O)NCC(C)(C)C(N)=O)C(C)C)C(C)C)ccc1OC` [S2199] were, in that order, 4.3 µM and 3.52 µM.
